Assay [1] has as its target T1, GSK3B (Homo sapiens, UniProt P49841). As to the kind of experiment: In vitro enzymatic activity assay, GSK3β. The class given is biochemical. On the set-up: Full length human GSK3α or GSK3B expressed as N-terminal GST fusion proteins; GST (N); purchased Carna Biosciences (Japan); host or cells: baculovirus host. The conditions noted are these: 1.0 mM ATP, 1.0 μM peptide substrate, 120 min, 25° C, read-out: Enzyme GSK3β (IC50). As for the experimental part:
(§1) Full length human GSK3α or GSK3B expressed as N-terminal GST fusion proteins in baculovirus host were purchased from Carna Biosciences (Japan). The kinase was pre-incubated with ATP (adenosine-5′-triphosphate) for 45 min, then incubated with tested compounds for another 45 min in assay buffer that contains 100 mM HEPES (N-2-hydroxyethylpiperazine-N′-2-ethanesulfonic acid), pH 7.5, 10 mM MgCl2, 1.0 mM DTT, and 0.015% Briji-35. […] Percent inhibition was plotted against compound concentration to generate 10-point dose response curve with 3-fold serial dilution starting from 10 μM. IC50 value was determined from the 4-parameter logistic curve fitting.

For assay [2], the target named is T1, GSK3B. The assay is described as follows: NanoBRET cellular target engagement assay, Nanoluc-GSK3B in HEK293 cells. The class given is cell-based. More on the design: expressed in transfected cells. The conditions noted are these: NanoBRET GSK3β IC50, HEK293 cells, tracer K-8, 2 hours, 37° C. As for the experimental part:
(§2) In the assay, HEK293 cells stably expressing either Nanoluc-GSK3A or Nanoluc-GSK3B were maintained in culture media and seeded, using a multidrop dispenser, at a density of 5×10^3 cells per well in 384-well white plates with 100 ng/ml doxycycline (Sigma) overnight.
(§3) Compound was first diluted in DMSO to generate a 9-point serial dilution then diluted to 10× final concentration in Opti-MEM™ (Gibco). After overnight incubation, cell medium was aspirated from the seeded cells using a microplate automatic washer, then 27 μL of pre-warmed Opti-MEM™ with kinase tracer (K-8) and 3 μL of Opti-MEM™ diluted DMSO or compounds were added per well. Plates were protected from light, mixed in an orbital shaker for 3 min at RT and incubated at 37° C., 5% CO2 in a humidified incubator for 2 hours. After acclimation at RT for 15 min, 15 μL of 3× complete NanoBRET™ Nano-Glo Substrate/Inhibitor (Promega) was added per well. Plates were mixed in an orbital shaker for 3 min at RT and incubated for an additional 30 min. Donor emission at 460 nm and acceptor emission at 647 nm were measured in EnVision multilabel plate reader (Perkin Elmer).
On the technique in general: Bioluminescence resonance energy transfer reports proximity on the nanometre scale.

A further assay addresses T2, human GSK3α (Homo sapiens, UniProt P49840).
T2 construct: Full length human GSK3α or GSK3B expressed as N-terminal GST fusion proteins; GST (N); purchased Carna Biosciences (Japan); host or cells: baculovirus host
The assay is described as follows: In vitro enzymatic activity assay, GSK3α. It is filed as biochemical. The conditions noted are these: 1.0 mM ATP, 1.0 μM peptide substrate, 120 min, 25° C, read-out: Enzyme GSK3α (IC50). As for the experimental part:
as §1

Another assay deals with T3, GSK3A (Homo sapiens, UniProt P49840).
T3 construct: expressed in transfected cells
T3 sequence (P49840 whole entry): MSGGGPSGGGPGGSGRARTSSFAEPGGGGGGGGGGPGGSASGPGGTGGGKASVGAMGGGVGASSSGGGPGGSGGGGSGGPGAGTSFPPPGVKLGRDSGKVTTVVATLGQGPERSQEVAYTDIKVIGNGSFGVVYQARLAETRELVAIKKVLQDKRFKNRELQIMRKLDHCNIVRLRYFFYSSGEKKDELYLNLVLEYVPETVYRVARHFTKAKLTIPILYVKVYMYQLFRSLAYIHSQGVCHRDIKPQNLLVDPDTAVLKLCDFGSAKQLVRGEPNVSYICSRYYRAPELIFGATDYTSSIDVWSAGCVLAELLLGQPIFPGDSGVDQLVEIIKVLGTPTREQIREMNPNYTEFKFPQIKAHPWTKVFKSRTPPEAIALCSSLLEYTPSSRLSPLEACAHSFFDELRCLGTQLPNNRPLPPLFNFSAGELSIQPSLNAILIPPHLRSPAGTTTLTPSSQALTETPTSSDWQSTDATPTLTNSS
As to the kind of experiment: NanoBRET cellular target engagement assay, Nanoluc-GSK3A in HEK293 cells. The class given is cell-based. The conditions noted are these: NanoBRET GSK3α IC50, HEK293 cells, tracer K-8, 2 hours, 37° C. As for the experimental part: as §2, §3

T2 sequence (P49840 whole entry, the tested form may be a part): as the sequence (P49840 whole entry) above
T1 sequence (P49841 whole entry, the tested form may be a part): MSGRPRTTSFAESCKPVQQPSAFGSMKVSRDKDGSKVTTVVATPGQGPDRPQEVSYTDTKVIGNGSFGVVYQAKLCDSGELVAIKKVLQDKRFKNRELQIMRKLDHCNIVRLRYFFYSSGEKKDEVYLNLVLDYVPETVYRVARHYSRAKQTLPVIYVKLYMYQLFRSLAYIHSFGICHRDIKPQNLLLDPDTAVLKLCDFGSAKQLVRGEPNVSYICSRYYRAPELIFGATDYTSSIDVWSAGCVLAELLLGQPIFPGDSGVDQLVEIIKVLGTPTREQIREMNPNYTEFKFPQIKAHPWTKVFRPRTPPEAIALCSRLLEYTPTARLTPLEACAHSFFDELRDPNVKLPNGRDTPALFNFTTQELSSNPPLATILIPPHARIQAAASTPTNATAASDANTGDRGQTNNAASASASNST

The IC50 is the concentration that inhibits the measured activity by half. `CCOc1cc(Cl)c(-n2cnc(N)c(C(=O)Nc3cncc(C(C)NC)c3)c2=O)c(Cl)c1` (single isomer, unassigned) [Example 24, (R)-4-amino-1-(2,6-dichloro-4-ethoxyphenyl)-N-(5-(1-(methylamino)ethyl)pyridin-3-yl)-6-oxo-1,6-dihydropyrimidine-5-carboxamide or (S)-4-amino-1-(2,6-dichloro-4-ethoxyphenyl)-N-(5-(1-(methylamino)ethyl)pyridin-3-yl)-6-oxo-1,6-dihydropyrimidine-5-carboxamide]: the IC50 turned out to be 298 nM at GSK3B [1], 147 nM against GSK3B [2], 4.1 nM on human GSK3α and 2.8 nM on GSK3A.

Turning to `COCc1cc(C)c(-n2cnc(N)c(C(=O)Nc3cncc4c3CCC4(C)N)c2=O)c(C)c1` (single isomer, unassigned) [Example 27, (R)-4-amino-N-(7-amino-7-methyl-6,7-dihydro-5H-cyclopenta[c]pyridin-4-yl)-1-(4-(methoxymethyl)-2,6-dimethylphenyl)-6-oxo-1,6-dihydropyrimidine-5-carboxamide or (S)-4-amino-N-(7-amino-7-methyl-6,7-dihydro-5H-cyclopenta[c]pyridin-4-yl)-1-(4-(methoxymethyl)-2,6-dimethylphenyl)-6-oxo-1,6-dihydropyrimidine-5-carboxamide], the half-maximal inhibitory concentration (IC50) on GSK3B [1] amounted to 54.2 nM; at GSK3B [2], 42.5 nM; at human GSK3α, 2.4 nM; against GSK3A, 1.7 nM.

Regarding `COC[C@](C)(N)c1cncc(NC(=O)c2c(N)ncn(-c3c(Cl)cc(OC)cc3Cl)c2=O)c1` (single isomer, unassigned) [Example 31, (R)-4-amino-N-(5-(2-amino-1-methoxypropan-2-yl)pyridin-3-yl)-1-(2,6-dichloro-4-methoxyphenyl)-6-oxo-1,6-dihydropyrimidine-5-carboxamide or (S)-4-amino-N-(5-(2-amino-1-methoxypropan-2-yl)pyridin-3-yl)-1-(2,6-dichloro-4-methoxyphenyl)-6-oxo-1,6-dihydropyrimidine-5-carboxamide], the IC50 at GSK3B [1] stood at 405 nM; against GSK3B [2] it was 418 nM; at human GSK3α it was 6.9 nM; against GSK3A, 5 nM.

`COc1cc(Cl)c(-n2cnc(N)c(C(=O)Nc3cncc([C@@H]4NC[C@H]5CCC[C@H]54)c3)c2=O)c(Cl)c1` (single isomer, unassigned) [Example 32, 4-amino-1-(2,6-dichloro-4-methoxyphenyl)-N-(5-((1R,3aS,6aR)-octahydrocyclopenta[c]pyrrol-1-yl)pyridin-3-yl)-6-oxo-1,6-dihydropyrimidine-5-carboxamide or 4-amino-1-(2,6-dichloro-4-methoxyphenyl)-N-(5-((1S,3aR,6aS)-octahydrocyclopenta[c]pyrrol-1-yl)pyridin-3-yl)-6-oxo-1,6-dihydropyrimidine-5-carboxamide]: the IC50 at GSK3B [1] was 269 nM; against GSK3B [2], 158 nM; on human GSK3α, 6.3 nM; against GSK3A, 2.6 nM.

On to `CCC(N)c1cncc(NC(=O)c2c(N)ncn(-c3c(C)cc(COC)cc3C)c2=O)c1` (single isomer, unassigned) [Example 35, (R)-4-amino-N-(5-(1-aminopropyl)pyridin-3-yl)-1-(4-(methoxymethyl)-2,6-dimethylphenyl)-6-oxo-1,6-dihydropyrimidine-5-carboxamide or (S)-4-amino-N-(5-(1-aminopropyl)pyridin-3-yl)-1-(4-(methoxymethyl)-2,6-dimethylphenyl)-6-oxo-1,6-dihydropyrimidine-5-carboxamide], for which the IC50 on GSK3B [1] was 693 nM; against GSK3B [2], 412 nM; at human GSK3α it was 14.7 nM; against GSK3A, 6.2 nM.

With `Cc1cc(C#N)cc(Cl)c1-n1cnc(N)c(C(=O)Nc2cccc([C@@H]3CCCCN3)c2)c1=O` (single isomer, unassigned) [Example 41, (S)-4-amino-1-((S)-2-chloro-4-cyano-6-methylphenyl)-6-oxo-N-(3-(piperidin-2-yl)phenyl)-1,6-dihydropyrimidine-5-carboxamide or (R)-4-amino-1-((S)-2-chloro-4-cyano-6-methylphenyl)-6-oxo-N-(3-(piperidin-2-yl)phenyl)-1,6-dihydropyrimidine-5-carboxamide], the IC50 is 605 nM on GSK3B [1], 386 nM on GSK3B [2], 12.1 nM on human GSK3α and 5.9 nM on GSK3A.

Regarding `C[C@H](N)c1cncc(NC(=O)c2c(N)ncn(-c3c(Cl)cc(C#N)cc3Cl)c2=O)c1` (single isomer, unassigned) [Example 43, (S)-4-amino-N-(5-(1-aminoethyl)pyridin-3-yl)-1-(2,6-dichloro-4-cyanophenyl)-6-oxo-1,6-dihydropyrimidine-5-carboxamide or (R)-4-amino-N-(5-(1-aminoethyl)pyridin-3-yl)-1-(2,6-dichloro-4-cyanophenyl)-6-oxo-1,6-dihydropyrimidine-5-carboxamide], the IC50 worked out at 283 nM at GSK3B [1], 285 nM against GSK3B [2], 4.9 nM on human GSK3α and 5.4 nM against GSK3A.

Consider `COC[C@@H](N)c1cncc(NC(=O)c2c(N)ncn(-c3c(Cl)cc(C#N)cc3Cl)c2=O)c1` (single isomer, unassigned) [Example 44, (S)-4-amino-N-(5-(1-amino-2-methoxyethyl)pyridin-3-yl)-1-(2,6-dichloro-4-cyanophenyl)-6-oxo-1,6-dihydropyrimidine-5-carboxamide or (R)-4-amino-N-(5-(1-amino-2-methoxyethyl)pyridin-3-yl)-1-(2,6-dichloro-4-cyanophenyl)-6-oxo-1,6-dihydropyrimidine-5-carboxamide], for which the IC50 is 382 nM on GSK3B [1], 518 nM on GSK3B [2], 4.7 nM at human GSK3α and 7.6 nM against GSK3A.

Regarding `COC[C@H](N)c1cncc(NC(=O)c2c(N)ncn(-c3c(Cl)cc(OC(F)F)cc3Cl)c2=O)c1` (single isomer, unassigned) [Example 47, (R)-4-amino-N-(5-(1-amino-2-methoxyethyl)pyridin-3-yl)-1-(2,6-dichloro-4-(difluoromethoxy)phenyl)-6-oxo-1,6-dihydropyrimidine-5-carboxamide or (S)-4-amino-N-(5-(1-amino-2-methoxyethyl)pyridin-3-yl)-1-(2,6-dichloro-4-(difluoromethoxy)phenyl)-6-oxo-1,6-dihydropyrimidine-5-carboxamide], the IC50 on GSK3B [1] is 227 nM; at GSK3B [2], 174 nM; at human GSK3α, 3.2 nM; against GSK3A, 2.9 nM.

Take `COCC(N)c1cncc(NC(=O)c2c(N)ncn(-c3c(Cl)cc(Cl)cc3Cl)c2=O)c1` (single isomer, unassigned) [Example 49, (R)-4-amino-N-(5-(1-amino-2-methoxyethyl)pyridin-3-yl)-6-oxo-1-(2,4,6-trichlorophenyl)-1,6-dihydropyrimidine-5-carboxamide or (S)-4-amino-N-(5-(1-amino-2-methoxyethyl)pyridin-3-yl)-6-oxo-1-(2,4,6-trichlorophenyl)-1,6-dihydropyrimidine-5-carboxamide]: the concentration for half-maximal inhibition (IC50) on GSK3B [1] was determined as 161 nM; against GSK3B [2], 144 nM; on human GSK3α, 2.5 nM; on GSK3A it was 2.8 nM.

For `C[C@@H](N)c1cncc(NC(=O)c2c(N)ncn(-c3c(Cl)cc(Cl)cc3Cl)c2=O)c1` (single isomer, unassigned) [Example 50, (R)-4-amino-N-(5-(1-aminoethyl)pyridin-3-yl)-6-oxo-1-(2,4,6-trichlorophenyl)-1,6-dihydropyrimidine-5-carboxamide or (S)-4-amino-N-(5-(1-aminoethyl)pyridin-3-yl)-6-oxo-1-(2,4,6-trichlorophenyl)-1,6-dihydropyrimidine-5-carboxamide], the IC50 is 708 nM at GSK3B [1], 439 nM against GSK3B [2], 16.5 nM on human GSK3α and 7.4 nM at GSK3A.

The record behind these values is patent US20260327191A1, “GSK3a INHIBITORS AND METHODS OF USE THEREOF” (Blueprint Medicines Corporation, priority 2023, published 2026).
